Laboratory results reported in patent USRE48842E1, “Pyrimido-pyrrolo-oxazine-dione compound inhibitors of the cystic fibrosis transmembrane conductance regulator protein and uses therefor” (The Regents of the University of California, priority 2011, dated 2021).
Read-outs that look alike come from different tables or passages of the source.

Legend:
[1] = Mouse pharmacokinetics and renal accumulation (LC/MS); format: in vivo
Description: Mouse Pharmacokinetics and Renal Accumulation—A compound of structure (I) was formulated at 1 mg/mL in 5% DMSO, 2.5% Tween-80 and 2.5% PEG400 in H2O, based on formulations used for compounds of similar polarity and chemical properties. Male mice in a CD1 genetic background (age 8-10 weeks, 25-35 g) were administered 300 μL of the BPO-27 formulation by intraperitoneal injection. At specified times kidneys were removed following renal arterial perfusion with PBS. Kidneys were weighed, mixed with acetic acid (100 μl per 1 g tissue) and ethyl acetate (10 mL per 1 g tissue), and homogenized. The homogenate was centrifuged at 3,000 rpm for 15 min. Calibration standards were prepared in kidney homogenates from control mice to which was added known amounts of BPO-27. The ethyl acetate-containing supernatant was dried under nitrogen and the residue was reconstituted in acetonitrile:H2O (3:1) containing 0.1% formic acid. For analysis of blood and urine, fluids were diluted with equal volume of water and extracted with ethyl acetate. LC/MS analysis was carried out as described herein.
PPQ-102 was undetectable in serum, kidney, and urine at 30-60 min after intravenous bolus administration of 300 μg PPQ-102 in mice using an LC/MS assay with sensitivity better than 100 nM. […] To improve on the drug-like properties of PPQ-102, a series of compound analogs were synthesized and tested.
BPO-27 pharmacokinetics in mice was measured following bolus intraperitoneal administration in an aqueous formulation in 5% DMSO, 2.5% Tween-80 and 2.5% PEG400 in water. BPO-27 was measured by LC/MS in kidney, blood and urine. […] The assay was linear with a detection sensitivity of better than 100 nM BPO-27. […] FIG. 11C summarizes the deduced BPO-27 concentrations in kidney, blood and urine over time. The t1/2 for disappearance of the original compound was approximately 2 h.

E13.5 embryonic kidneys [2] = assay: Embryonic kidney organ culture model of PKD (8-Br-cAMP-induced cyst growth); format: cell-based, mouse
Description: Embryonic Organ Culture Model of PKD—Mouse embryos were obtained at embryonic day 13.5 (E13.5). Metanephroi were dissected and placed on transparent Falcon […] porous cell culture inserts as described (see, e.g., Tradtrantip et al., J. Med. Chem. 2009, supra). To the culture inserts was added DMEM/Ham's F-12 nutrient medium supplemented with 2 mM L-glutamine, 10 mM HEPES, 5 μg/mL insulin, 5 μg/mL transferrin, 2.8 nM selenium, 25 ng/ml prostaglandin E, 32 pg/ml T3, 250 U/ml penicillin, and 250 μg/ml streptomycin. Kidneys were maintained in a 37° C. humidified CO2 incubator for up to 8 days. Culture medium containing 100 μM 8-Br-cAMP, with or without test compound, was replaced (in the lower chamber) every 12 h. Kidneys were photographed using a Nikon inverted microscope (Nikon TE 2000-S) equipped with 2× objective lens, 520 nm bandpass filter, and high-resolution CCD camera. Percentage cyst area was calculated as total cyst area divided by total kidney area.
An established embryonic ex vivo kidney organ culture model of PKD was used to test BPO-27 (racemic mixture of R and S forms) efficacy in reducing cAMP agonist-induced renal cystogenesis (see Example 30). […]

CFTR = CFTR (Homo sapiens, UniProt P13569); conditions: literature values; read-out: IC50 for CFTR inhibition; cited from earlier work
E13.5 embryonic kidneys [3] = conditions: from Tradtrantip et al., J. Med. Chem. 2009; read-out: IC50 for inhibition of cyst growth; cited from earlier work

Sequence of CFTR (P13569 whole entry, species assumed): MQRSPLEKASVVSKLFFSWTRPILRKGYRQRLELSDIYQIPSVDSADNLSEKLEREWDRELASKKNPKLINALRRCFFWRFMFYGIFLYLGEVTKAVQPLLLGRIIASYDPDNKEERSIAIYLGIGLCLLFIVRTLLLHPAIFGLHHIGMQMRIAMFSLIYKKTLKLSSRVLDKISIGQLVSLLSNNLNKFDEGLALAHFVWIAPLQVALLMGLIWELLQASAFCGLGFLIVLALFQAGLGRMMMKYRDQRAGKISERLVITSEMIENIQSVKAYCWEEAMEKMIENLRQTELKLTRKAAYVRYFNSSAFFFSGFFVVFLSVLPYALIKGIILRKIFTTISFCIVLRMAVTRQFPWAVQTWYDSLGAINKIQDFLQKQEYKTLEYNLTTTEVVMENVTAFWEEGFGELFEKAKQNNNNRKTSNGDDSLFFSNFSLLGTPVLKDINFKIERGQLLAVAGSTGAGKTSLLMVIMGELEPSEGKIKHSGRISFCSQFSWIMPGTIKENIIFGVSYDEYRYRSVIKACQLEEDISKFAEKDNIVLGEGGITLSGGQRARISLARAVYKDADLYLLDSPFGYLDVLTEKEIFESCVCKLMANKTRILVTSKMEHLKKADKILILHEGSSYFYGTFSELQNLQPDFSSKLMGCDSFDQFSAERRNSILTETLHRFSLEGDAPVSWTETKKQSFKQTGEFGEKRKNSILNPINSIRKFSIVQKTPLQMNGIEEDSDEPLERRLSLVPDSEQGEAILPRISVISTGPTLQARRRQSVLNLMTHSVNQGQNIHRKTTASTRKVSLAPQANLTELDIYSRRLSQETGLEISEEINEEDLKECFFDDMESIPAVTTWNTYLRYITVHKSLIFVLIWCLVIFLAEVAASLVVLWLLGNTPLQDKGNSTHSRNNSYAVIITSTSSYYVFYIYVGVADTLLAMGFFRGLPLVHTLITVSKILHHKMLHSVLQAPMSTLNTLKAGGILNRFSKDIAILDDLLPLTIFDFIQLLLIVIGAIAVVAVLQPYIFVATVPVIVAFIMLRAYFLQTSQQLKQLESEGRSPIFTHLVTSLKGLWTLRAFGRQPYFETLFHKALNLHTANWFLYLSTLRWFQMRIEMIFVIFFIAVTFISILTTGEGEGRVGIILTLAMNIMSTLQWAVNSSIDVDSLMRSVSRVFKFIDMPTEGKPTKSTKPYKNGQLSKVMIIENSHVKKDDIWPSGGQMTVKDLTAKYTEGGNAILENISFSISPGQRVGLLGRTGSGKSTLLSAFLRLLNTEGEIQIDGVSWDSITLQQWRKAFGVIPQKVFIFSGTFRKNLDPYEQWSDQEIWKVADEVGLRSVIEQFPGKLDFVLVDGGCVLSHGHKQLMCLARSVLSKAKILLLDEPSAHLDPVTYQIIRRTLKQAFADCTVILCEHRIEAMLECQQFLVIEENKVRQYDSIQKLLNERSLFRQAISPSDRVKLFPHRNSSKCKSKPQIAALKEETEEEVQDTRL

Row | SMILES | half-life ([1]; male, CD1, mouse, in vivo, ip, 300 μg, mice, bolus intraperitoneal administration, read-out: t1/2 for disappearance of the original compound (converted)) | compound concentration in kidney, blood and urine ([1]; mice, for many hours following single intraperitoneal dose) | IC50 (E13.5 embryonic kidneys [2]; Mus musculus, 100 μM 8-Br-cAMP, racemic mixture, read-out: IC50 for inhibition of cyst growth (percentage area occupied by cysts)) | cyst growth in 8-Br-cAMP-treated kidney (in words) (E13.5 embryonic kidneys [2]; compound in culture medium, 0.1 or 1 μM) | compound in serum, kidney, and urine ([1]; 30-60 min after intravenous bolus of 300 μg in mice, LC/MS sensitivity better than 100 nM) | IC50 (CFTR) | IC50 (E13.5 embryonic kidneys [3])
1 | Cn1c(=O)c2c(-c3ccccc3)n3c(c2n(C)c1=O)C(c1ccc(Br)o1)Oc1ccc(C(=O)O)cc1-3 (racemic) [BPO-27, 6-(5-Bromofuran-2-yl)-7,9-dimethyl-8,10-dioxo-11-phenyl-7,8,9,10-tetrahydro-6H-benzo[b]pyrimido[4′,5′:3,4]pyrrolo[1,2-d][1,4]oxazine-2-carboxylic acid] | ~2 h | greater than 4 nM | ~100 nM | remarkably reduced | – | – | –
2 | Cc1ccc(C2Nc3ccccc3-n3c(-c4ccccc4)c4c(=O)n(C)c(=O)n(C)c4c32)o1 (stereo not shown) [PPQ-102, 7,9-Dimethyl-6-(5-methylfuran-2-yl)-11-phenyl-5,6-dihydropyrimido[4′,5′-3,4]pyrrolo[1,2-a]quinoxaline-8,10-(7H,9H)-dione, reference compound] | – | – | – | – | undetectable | ~90 nM | > 500 nM
